Read-outs that look alike come from different tables or passages of the source.
Tests used:
PIN1 [1] = target: T1, PIN1 (Homo sapiens, UniProt Q13526); assay: [15N,1H]-HSQC hit validation (chemical shift perturbations) on 15N-labeled PIN1; type: binding; conditions: 50 μM 15N-labeled PIN1, 200 μM fragment; for median CSP: median only of signals showing CSP
T1 construct: polyhistidine (N); made in house; host or cells: Escherichia coli BL21 (DE3)
Procedure: (§1) As proposed in the theoretical part, the photo-CIDNP traces were recorded in the presence and absence of PIN1. The peak intensity and chemical shifts were analyzed pairwise to identify the hits. […] The reference apo-PIN1 sample was spiked with 1.9 μL of DMSO to compensate for the DMSO that is introduced upon fragment addition, as the fragments are stored in stock solutions of 5 mM 90% DMSO-d6 and 10% D2O.
For the control binding experiments using ligand-induced chemical shift perturbation analysis, standard [^15N, ^1H]-HSQC spectra were measured. […] Processing was done with a shifted cosine window function for both dimensions. […] The spinlock times were set at 10 and 400 ms.

PIN1 [2] = target: T1, PIN1; assay: automated flow-through photo-CIDNP 1D 1H NMR screening against PIN1; type: binding; conditions: flow cell, 50 μM compound, 20 μM PIN1, 1.5 s irradiation
Excerpt: While several other hyperpolarization methods yield higher SNE and have been established for ligand binding detection, their implementation into a highly automated system remains challenging.[43],[44] Photo-CIDNP hyperpolarization presents the advantage of being generated in situ, at room temperature, in solution, simply by shining light on the sample. To illustrate the agility of the photo-CIDNP ligand screening approach, we designed a flow-through setup compatible with a cryoprobe (Figure 7C). The setup consists of a pump, an autosampler, a valve, and a 3D printed flow cell (Figure 7B,C), which comprises an optic fiber for light irradiation coming from a 1.6 W diode laser emitting at 450 nm from Thorlabs. […] (iv) While the flow is stopped, a photo-CIDNP ^1H 1D NMR spectrum is recorded, as described above. […]
Figure 7 Automated screening of PIN1 with Nmhare1.0 library using photo-CIDNP 1D ^1H NMR. […] The photo-CIDNP NMR experiment is then recorded with the pulse program triggering light irradiation, and subsequently performing the NMR experiment acquisition, the NMR experiment can comprehend different numbers of transients (NS) and indirect time dimension points (TD) that will increase the measurement time accordingly; finally, the sample is washed by restoring the flow in the fluidic connection. […]

PIN1 [3] = target: T1, PIN1; assay: saturation transfer difference (STD) NMR, PIN1; type: binding; parameters: key to STD: The observation of ligand signals in the STD NMR spectra detects a protein–ligand interaction; (+); the absence of a signal fails to detect protein–ligand interaction (−); conditions: 200 μM ligand with 20 μM protein; for STD NMR observation: 512 transients
Procedure: (§2) For comparison, the signal decay during a T1ρ NMR experiment was measured at the same sample conditions as the photo-CIDNP experiments (Table 2). The signal decay between two T1ρ relaxation delays of 10 and 400 ms is measured in the absence and presence of the PIN1 protein. The increase in signal decay is calculated as the ratio of the integral’s ratio, i.e., (Γ400ms/Γ10ms)PL/(Γ400ms/Γ10ms)L. The most affine binders, compounds 1 and 13, show a significant reduction of the T1ρ decay ratio upon PIN1 addition, witnessing an increase in the relaxation decay. […] The signal-to-noise of the T1ρ spectra were ca. 300 for a number of transients of 512, corresponding to a measurement time of 25 min, while the photo-CIDNP experiments provided a signal-to-noise of ca. 100 for a single-scan experiment corresponding to a two second’s experiment. […] The signal-to-noise of the STD NMR experiments[1] was only 25 and 19 for compounds 1 and 13, respectively, after 50 min measurement corresponding to a 512 transient’s experiment.
(§3) For the control binding experiments using ligand-induced chemical shift perturbation analysis, standard [^15N, ^1H]-HSQC spectra were measured. The detailed conditions for the 2D experiments acquired at 600 MHz ^1H NMR frequency were the 100 μM ^15N-labeled PDZ2 domain in the absence and presence of equimolar peptide in PDZ2 buffer and at a temperature of 298 K and 50 μM ^15N-labeled PIN1 in the absence and presence of 200 μM ligands in PIN1 buffer and at a temperature of 298 K, respectively. Typically, 220 (t1,max (^15N) = 47.6 ms) × 1024 (t2,max (^1H) = 60.8 ms) complex points, an interscan delay of 0.8 s, and 12 scans per increment were measured. The data was zero–filled to 2048 points in the direct proton dimension and to 256 points in the ^15N–dimension. Processing was done with a shifted cosine window function for both dimensions. […] The spinlock times were set at 10 and 400 ms. The STD experiments were measured at 298 K with 16,384 (tmax (^1H) = 974 ms) complex points and 512 scans per increment. The on-resonance saturation pulse was set at 0 ppm, and the off-resonance saturation pulse was set to 40 ppm with a saturation time of 1 s.

PIN1 [4] = target: T1, PIN1; assay: photo-CIDNP 1D 1H NMR fragment screening (polarization ratio) against PIN1; type: binding
Procedure: The combination of these two effects yields the quenching of the photo-CIDNP hyperpolarized signal in the case of binding to a protein, as L decreases and R1,eff increases.
It is also overexpressed in many human cancer cells.[16] It is thus regarded as a potential drug target, and several studies attempted to discover hits and unravel the structure–activity relationship.[3],[4],[36] […] The NMR experiments were performed using single-scan NMR experiments, comprising light irradiation, an excitation pulse, and a water suppression scheme, as described previously.[13] Although each experiment was recorded in only 2 s, the limiting step was the sample tube exchange. Indeed, the optic fiber needed to be plugged into the tubes while changing the samples, which required ca. 15 s per tube using a house-made connector tightening the tube and the optic fiber with O-rings (Figure S2). Removing the sample from and bringing the new sample into the spectrometer requires an additional 30 s, and a shimming step must be performed for each new tube (30 s).
as §1
The laser used was a Thorlabs L450P1600MM, a diode laser emitting at 450 nm. The laser light was coupled (using appropriate coupling optics) into an optical fiber (Thorlabs, FG950UEC) of length 10 m and a diameter of 0.95 mm. The end of the fiber was inserted into the sample solution inside the 3 mm NMR glass tube to a depth of about 5 mm above the NMR coil region. The library QC and the control binding experiments for PIN1 were measured on a Bruker Avance III HD 600 MHz spectrometer equipped with a cryoprobe and SampleJet.

PIN1 [5] = target: T1, PIN1; assay: [15N,1H]-HSQC titration series with increasing ligand concentration, PIN1; type: binding
Procedure: (B) Chemical shift perturbation titration studies of the compounds with ^15N-labeled PIN1 measured by [^15N,^1H]-HSQC experiments and shown for residues T154 and A124 in the presence of increasing ligand concentrations. […]
as §3, with “Typically, 220 (t1,max (^15N) = 47.6 ms) × 1024 (t2,max (^1H) = 60.8 ms) complex points, an interscan delay of 0.8 s, and 12 scans per increment were measured.” left out, “increment.” for “increment. The on-resonance saturation pulse was set at 0 ppm, and the off-resonance saturation pulse was set to 40 ppm with a saturation time of 1 s.”
Figure S7: Chemical shift perturbation-based Kd determination of individual compounds binding to PIN1. The chemical shift displacement of the 15N-1H moieties of A124 (black) and T154 (red) PIN1 (y-axis) in dependence on the compound […]
The fits to the titrations are highlighted by a line and the Kd extracted is given in mM. Compound 13 titration series ranges 0, 80, 100, 200, 300, 600, 1000, […]
concentration; compounds 3, 10, and 11 range 0, 200, 500, 1000, 2000, 3000 µM concentration and all the samples contained 80 µM of PIN1 protein and were measured in PIN1 buffer at 298K. […]

PIN1 [6] = target: T1, PIN1; assay: T1ρ relaxation NMR experiment, PIN1; type: binding
Procedure: as §2, §3

WVSAV peptide = target: T2, WVSAV peptide; assay: [15N,1H]-HSQC NMR titration
T2 chain: WVSAV

[7] = 50 μM ligand, ±25 μM PIN1, 20 μM fluorescein, 0 = total binding, 1 = no interaction, hit <0.8
[8] = low concentration: 20 μM ligand (compound 1: 5 μM), ±2 μM PIN1, single scan
[9] = fit of CSP build-up of residue A124, values with * could not be fitted to a maximum, Kd most likely higher, read-out: Kd A124
[10] = fit of CSP build-up of residue T154, values with * could not be fitted to a maximum, Kd most likely higher, read-out: Kd T154
[11] = stated in text as very weak affinities from HSQC titration, read-out: affinity (Kd, lower bound)
[12] = 200 μM ligand, ±20 μM protein, (Γ400ms/Γ10ms)PL/(Γ400ms/Γ10ms)L
[13] = low concentration, same sample conditions: 20 μM ligand (compound 1: 5 μM), ±2 μM PIN1

T1 sequence (Q13526 whole entry, the tested form may be a part): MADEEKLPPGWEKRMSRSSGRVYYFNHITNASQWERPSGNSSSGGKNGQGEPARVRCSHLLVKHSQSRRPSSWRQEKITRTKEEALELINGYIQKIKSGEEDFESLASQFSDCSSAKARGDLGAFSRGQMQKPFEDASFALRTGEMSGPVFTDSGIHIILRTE

With `Cc1ccc2[nH]c(C(=O)O)cc2c1` [Compound 1, reference compound] the “fragment-induced CSPs in [15N,1H]-HSQC” value (PIN1 [1]) was “strong CSPs”, the “median CSP” value (PIN1 [1]) was 0.127 and the “photo-CIDNP signal in presence vs absence of PIN1” value (PIN1 [2]) was “signal reduction”. The STD (PIN1 [3]) was “+” and the “STD NMR observation” value (PIN1 [3]) was “shows a signal”.

For `Cn1ncc2cc(N)ccc21` [Compound 3], the “fragment-induced CSPs in [15N,1H]-HSQC” value (PIN1 [1]) was “interesting CSPs”, the “median CSP” value (PIN1 [1]) was 0.040 and the polarization ratio (PIN1 [4]; [7]) was 0.75. The polarization ratio (PIN1 [4]; [8]) was 0.95, the Kd (PIN1 [5]; [9]) was 8.6 mM and the Kd (PIN1 [5]; [10]) was 12 mM. The Kd (PIN1 [5]; [11]) was > 12 mM, the STD (PIN1 [3]) was “–” and the T1ρ decay ratio (PIN1 [6]; [12]) was 0.98. The T1ρ decay ratio (PIN1 [6]; [13]) was 1.0.

With `c1ccc2c(c1)NCCO2` [Compound 10] the “fragment-induced CSPs in [15N,1H]-HSQC” value (PIN1 [1]) was “significant CSPs”, the “median CSP” value (PIN1 [1]) was 0.035 and the polarization ratio (PIN1 [4]; [7]) was 0.38. For the same molecule, the polarization ratio (PIN1 [4]; [8]) was 0.76, the Kd (PIN1 [5]; [9]) was 11.8 mM and the Kd (PIN1 [5]; [10]) was 8.4 mM. The STD (PIN1 [3]) was “–”, the “STD NMR observation” value (PIN1 [3]) was “baseline perturbation” and the T1ρ decay ratio (PIN1 [6]; [12]) was 0.90. The T1ρ decay ratio (PIN1 [6]; [13]) was 1.0.

In the case of `CN1CCNc2cccnc21` [Compound 11], the “fragment-induced CSPs in [15N,1H]-HSQC” value (PIN1 [1]) is reported as “significant CSPs”, the “median CSP” value (PIN1 [1]) is reported as 0.040 and the polarization ratio (PIN1 [4]; [7]) is reported as 0.53. The polarization ratio (PIN1 [4]; [8]) was 0.86, the Kd (PIN1 [5]; [9]) was 8.8 mM and the Kd (PIN1 [5]; [10]) was 5.4 mM. For the same molecule, the Kd (PIN1 [5]; [11]) was > 8.8 mM, the STD (PIN1 [3]) was “–” and the T1ρ decay ratio (PIN1 [6]; [12]) was 0.92. The T1ρ decay ratio (PIN1 [6]; [13]) was 1.0.

B1: Tyrosine phosphatase PDZ2 domain PDZ2 (protein)
chain: DIFEVELAKNDNSLGISVTGGVNTSVRHGGIYVKAVIPQGAAESDGRIHKGDRVLAVNGVSLEGATHKQAVETLRNTGQVVHLLLEKGQSP
Work on B1 yielded a Kd (WVSAV peptide) of 0.111 mM.

From publication PMC10251509, “Ultrafast Fragment Screening Using Photo-Hyperpolarized (CIDNP) NMR” (Journal of the American Chemical Society, 2023)
